Paper PMC7046841, “Triterpenoids from Ainsliaea latifolia and Their Cyclooxyenase-2 (COX-2) Inhibitory Activities” (Natural Products and Bioprospecting, 2019)

Each molecule was assayed against T1, human recombinant COX-2 (Homo sapiens, UniProt P35354) (assay: Colorimetric COX Inhibitor Screening Assay (Cayman), COX-2 inhibitory effect).
T1 construct: purchased Cayman
T1 sequence (P35354 18-604): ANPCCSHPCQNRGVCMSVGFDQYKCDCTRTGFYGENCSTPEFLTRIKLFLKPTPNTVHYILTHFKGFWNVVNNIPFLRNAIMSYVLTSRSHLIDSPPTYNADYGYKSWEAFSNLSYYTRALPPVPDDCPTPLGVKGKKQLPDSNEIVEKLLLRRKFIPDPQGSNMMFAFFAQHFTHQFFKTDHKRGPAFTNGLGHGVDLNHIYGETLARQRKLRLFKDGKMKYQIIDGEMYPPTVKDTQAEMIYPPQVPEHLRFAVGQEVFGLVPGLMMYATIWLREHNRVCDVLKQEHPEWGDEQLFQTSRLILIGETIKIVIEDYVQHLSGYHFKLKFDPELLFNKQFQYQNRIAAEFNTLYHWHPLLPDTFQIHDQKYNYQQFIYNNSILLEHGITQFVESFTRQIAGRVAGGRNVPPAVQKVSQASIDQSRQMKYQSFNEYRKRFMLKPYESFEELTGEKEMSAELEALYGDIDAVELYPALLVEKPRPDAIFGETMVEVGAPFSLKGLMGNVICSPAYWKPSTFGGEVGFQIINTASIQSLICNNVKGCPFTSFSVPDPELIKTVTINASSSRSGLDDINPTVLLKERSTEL
Type: biochemical
Method: Cayman’s Colorimetric COX Inhibitor Screening Assay provides a convenient method for human recombinant COX-2 to screen isozyme-specific inhibitors. The assay measures the peroxidase component of COXs. The peroxidase activity is assayed colorimetrically by monitoring the appearance of oxidized N′,N,N,N′-tetramethyl-p-phenylenediamine (TMPD) at 590 nm. The COX-2 assay consisted of a 200 µL reaction mixture containing 150 µL assay buffer, 10 µL Heme, 10 µL COX-2, 20 µL Colorimetric Substrate, and 10 µL test solution (1, 5, 10, 20, 80, 100 µmol·L^−1). The reactions were initiated by quickly adding 10 µL Arachidonic Acid, then incubating for 2 min at room temperature.
In the case of `CC(C=CC(O)C(C)(C)O)C1CCC2(C)C3CC=C4C(CCC(O)C4(C)C)C3(C)CCC12C` (stereo not drawn) [Compound 1, cucurbita-5, 22-diene-3β, 24S, 25-triol], the IC50 is reported as > 100 µM.
With `C[C@H](CC[C@H](O)C(C)(C)O)[C@H]1CC[C@@]2(C)[C@@H]3CC=C4[C@@H](CC[C@H](O)C4(C)C)[C@]3(C)CC[C@]12C` [Compound 2, cucurbita-5-ene-3β,24S,25-triol] the IC50 was 18.9 ± 1.65 µM.
`C[C@H](C/C=C/C(C)(C)O)[C@H]1CC[C@@]2(C)[C@@H]3C[C@H]4O[C@@]45[C@@H](CC[C@H](O)C5(C)C)[C@]3(C)CC[C@]12C` [Compound 3, cucurbita-5β,6β-epoxy-23-ene-3β, 25-diol] was tested, and the IC50 was > 100 µM.
For `C[C@H](CCCO)[C@H]1CC[C@@]2(C)[C@@H]3CC=C4[C@@H](CC[C@H](O)C4(C)C)[C@]3(C)CC[C@]12C` [Compound 4, 25,26,27-trinorcucurbita-5-ene-3β,24-diol], the IC50 was 3.98 ± 0.32 µM.
Molecule `C[C@H](CCC(=O)O)[C@H]1CC[C@@]2(C)[C@@H]3CC=C4[C@@H](CC[C@H](O)C4(C)C)[C@]3(C)CC[C@]12C` [Compound 5, 25,26,27-trinorcucurbita-5-ene-3β-ol-24-acid] has an IC50 of 19.5 ± 1.87 µM.
`C[C@H](CCO)[C@H]1CC[C@@]2(C)[C@@H]3CC=C4[C@@H](CC[C@H](O)C4(C)C)[C@]3(C)CC[C@]12C` [Compound 6, 24,25,26,27-tetranorcucurbita-5-ene-3β,23-diol] showed an IC50 of 31 ± 2.64 µM.
`CC(CC=CC(C)(C)O)C1CCC2(C)C3CCC4(C)C(C)C(=O)CCC4C3(C)CCC12C` (stereo not drawn) [Compound 7, 18R-D:A-friedoeuph-20-ene-22-ol-3-one] was tested, and the IC50 was > 100 µM.
In the case of `C=C(C)[C@@H](O)CC[C@@H](C)[C@@H]1CC[C@]2(C)[C@H]3CC[C@@]4(C)[C@@H](CCC(=O)[C@@H]4C)[C@]3(C)CC[C@@]12C` [Compound 8], the IC50 is reported as > 100 µM.
`C[C@H](C/C=C/C(C)(C)O)[C@H]1CC[C@@]2(C)[C@@H]3CC=C4[C@@H](CC[C@H](O)C4(C)C)[C@]3(C)CC[C@]12C` [Compound 9, cucurbita-5,23-diene-3β,25-diol] was tested, and the IC50 was > 100 µM.
